Reference: patent US12325688B2, “Gingerenone A prodrugs as sensotherapeutics and methods of use” (The U.S.A., as Represented by the Secretary, Department of …, priority 2022, dated 2025)
“Also recorded” adds a separate entry of the source.

How the values were obtained:
Format in all cases: cell-based, human
[1] = tested on: IR-induced senescent WI-38 fibroblasts; test: MTT cell viability assay, senescent cells; details: for senolytic activity (selective decrease of viability of senescent cells): components at 100 μM, 6-shogaol 3.6 μM, 8-shogaol 33 μM, 6-gingerol 20 μM; for senescent cell viability: D+Q 250 nM dasatinib + 10 μM quercetin, gingerenone A 20 μM, 6-shogaol 72.4 nM
Method: Cell culture and treatments: WI-38 human diploid fibroblasts (HDFs) were cultured in Dulbecco's modified Eagle's medium (DMEM) supplemented with 10% heat-inactivated fetal bovine serum (FBS), penicillin and streptomycin, and non-essential amino acids at 37° C. in a 5% CO2 incubator. HDFs were rendered senescent by exposure to 10 Gy of ionizing radiation (IR) and then cultured for an additional ten days. Proliferating and senescent WI-38 cells were seeded in triplicate overnight at 2×10^5 cells/well (in 6 well plates) to achieve ˜-60% confluence by the next day. Cells were then treated with the extracts for times indicated. […]
MTT cell viability: The MTT assay (BioVision Milpitas, CA) was carried out following the manufacturer's protocol. Briefly, the media was gently removed from each well and 50 μl of serum-free medium+50 μl of Solution A were added to each well. The plates were incubated at 37° C. for MTT reduction into formazan for 3 h. Next, 150 μl Solution B was added to each well and the plate was covered with foil and shaken at 600 rpm for 15 min. The absorbance was measured at 590 nm using Enspire, Perkin Elmer Multimode plate reader. […]
WI-38 fibroblasts were rendered senescent by exposure to ionizing radiation (IR, 10 Gy) and cultured for an additional 10 days. […] Data represent the means and standard error from three biological replicates. The major components of ginger extract, namely 6-gingerol, 8-gingerol, 10-gingerol, 6-shogaol, 8-shogaol, gingerenone A, and zingerone, were screened for their ability to selectively decrease cell viability of senescent cells using the MTT assay (FIG. 10A).

[2] = tested on: proliferating and senescent WI-38 fibroblasts; test: Western blot of apoptotic pathway proteins; details: 48 h; for expression of anti-apoptotic protein Bcl-XL / levels of pro-apoptotic protein cleaved caspase-3: senescent cells
Method: Protein analysis: Cells were lysed in RIPA lysis buffer (Pierce, ThermoFisher) containing protease and phosphatase inhibitors (Roche) and incubated on ice for 10 min. The lysates were then sonicated for 5 min and centrifuged for 10 min at 4° C. to remove the insoluble fraction. The remaining supernatant was the whole-cell lysate. Lysates were separated by SDS-polyacrylamide gel electrophoresis (SDS-PAGE) and transferred onto nitrocellulose membranes (Biorad). Incubations with primary antibodies recognizing p21, p53, Beta-Actin (ACTB) (Santa Cruz Biotechnology), as well as caspase-3 (Abcam) and Bcl-XL (Cell Signaling) were followed by incubations with the appropriate secondary antibodies conjugated with horseradish peroxidase (GE Healthcare). Signals were developed using Enhanced Chemiluminescence (ECL) and acquired by using the ChemiDoc MP Imaging System (BioRad).
The effects of gingerenone A, 6-shogaol and D+Q on cytokines and chemokines that are known to be part of the senescence-associated secretory phenotype (SASP) were tested. WI-38 fibroblasts were rendered senescent by exposure to ionizing radiation (IR, 10 Gy) and cultured for an additional 10 days. Cells were then treated with gingerenone A (20 μM) and 6-shogaol (72.4 nM) and incubated for 24 h. CCL-2 (MCP-1) and IL-10 were measured using the Bio-plex (Multiplex); IL6 was measured using Quantikine IL-6 (R&D) (FIG. 12A). Data were normalized to cell number/total protein content. Data in graphs represent the means and standard error from three biological replicates. […] Ratios of cleaved pro-caspase 3 to total caspase 3, normalized to ACTB levels, are shown as relative to control proliferating cells. Cytokines (FIG. 13A) and chemokines (FIG. 13B) were measured using the V-plex panel (MSD) after treatment for 24 h with the indicated drugs. Relative secretion was measured as pg/ml vs control normalized on TE. Data in the graphs represent the means and standard error from three biological replicates.
To determine whether gingerenone A and 6-shogaol might influence the apoptotic pathway, their effect on the levels of cleaved caspase-3 (pro-apoptotic marker), and Bcl-XL (anti-apoptotic protein) (FIG. 12B) was tested. […] However, D+Q, gingerenone A, and 6-shogaol all reduced the expression of the anti-apoptotic protein Bcl-XL in senescent cells (FIG. 12B, right).

[3] = tested on: senescent WI-38 fibroblasts; test: Secreted SASP cytokines and chemokines (ELISA, multiplex, V-PLEX)
Method: Secreted protein analysis—ELISA, Luminex Multiplex and V-PLEX: Media was collected at the earliest timepoint (24 h after treatments) to avoid cell death that could interfere with the assay. The media was centrifuged at 1000×g for 5 min to remove debris. The secretion of IL-6 was measured by the Quantikine ELISA Kit (R&D systems) and the expression of pro-inflammatory cytokines and chemokines [IL-6, TNFα, CCL2 (MCP-1), IL-8, IFNβ] was also assessed by multiplex assays (customized Luminex plate, R&D) according to the manufacturer's instructions. The V-PLEX Plus Proinflammatory Panel 1 Human Kit and the Chemokine Panel 1 preparation and detection were carried out following the manufacturer's protocol (Mesoscale Diagnostics) using >80% confluency of proliferating or senescent cells on 24-well plates. Briefly, different concentrations of standards and samples were added to the plates, and they were incubated for 2 h on a microplate shaker. The plates were washed, and the corresponding detection antibody mixture was added to each well and incubated for 1 h with shaking. The plates were washed twice then Read buffer was added to each well. The plates were read on the MESO Quickplex SQ 120 (MSD, Rockville, MD) and protein concentrations were determined using MSD Discovery workbench 4.0. The effects of gingerenone A, 6-shogaol and D+Q on cytokines and chemokines that are known to be part of the senescence-associated secretory phenotype (SASP) were tested. WI-38 fibroblasts were rendered senescent by exposure to ionizing radiation (IR, 10 Gy) and cultured for an additional 10 days. Cells were then treated with gingerenone A (20 μM) and 6-shogaol (72.4 nM) and incubated for 24 h. CCL-2 (MCP-1) and IL-10 were measured using the Bio-plex (Multiplex); IL6 was measured using Quantikine IL-6 (R&D) (FIG. 12A). Data were normalized to cell number/total protein content. Data in graphs represent the means and standard error from three biological replicates. […] Ratios of cleaved pro-caspase 3 to total caspase 3, normalized to ACTB levels, are shown as relative to control proliferating cells. Cytokines (FIG. 13A) and chemokines (FIG. 13B) were measured using the V-plex panel (MSD) after treatment for 24 h with the indicated drugs. Relative secretion was measured as pg/ml vs control normalized on TE. Data in the graphs represent the means and standard error from three biological replicates.

[4] = tested on: proliferating WI-38 fibroblasts; test: MTT cell viability assay, proliferating cells; details: 48 h; D+Q 250 nM dasatinib + 10 μM quercetin, gingerenone A 20 μM, 6-shogaol 72.4 nM
Method: Cell culture and treatments: WI-38 human diploid fibroblasts (HDFs) were cultured in Dulbecco's modified Eagle's medium (DMEM) supplemented with 10% heat-inactivated fetal bovine serum (FBS), penicillin and streptomycin, and non-essential amino acids at 37° C. in a 5% CO2 incubator. HDFs were rendered senescent by exposure to 10 Gy of ionizing radiation (IR) and then cultured for an additional ten days. Proliferating and senescent WI-38 cells were seeded in triplicate overnight at 2×10^5 cells/well (in 6 well plates) to achieve ˜-60% confluence by the next day. Cells were then treated with the extracts for times indicated.
In 24-well plates, cells were treated with multiple dilutions (1:200 and 1:500) of Harpagophytum procumbens (Devil's Claw) (herb to menstruum ratio, 1:3), Uncaria tomentosa (Cat's Claw) (herb to menstruum ratio, 1:3), Zingiber officinale Rosc. […]
MTT cell viability: The MTT assay (BioVision Milpitas, CA) was carried out following the manufacturer's protocol. […] The absorbance was measured at 590 nm using Enspire, Perkin Elmer Multimode plate reader.
Four plant extracts were screened for senolytic activity, including extracts from Harpagophytum procumbens (Devil's Claw), Uncaria tomentosa (Cat's Claw), Zingiber officinale Rosc. […] In FIG. 8B, the impact on ginger extract on proliferating and senescent cells on cell survival was assessed by the MTT cell viability assay.

`CCCCC[C@H](O)CC(=O)CCc1ccc(O)c(OC)c1` [6-gingerol] was tested, and the “senolytic activity (selective decrease of viability of senescent cells)” value ([1]; 72 h) was “only 6-shogaol and gingerenone A displayed senolytic activity”.

With `CCCCC/C=C/C(=O)CCc1ccc(O)c(OC)c1` [6-shogaol] the “expression of anti-apoptotic protein Bcl-XL” value [2] was “reduced”, the “levels of pro-apoptotic protein cleaved caspase-3” value [2] was “increase” and the “changes in any of the cytokines and chemokines measured” value ([3]; 24 h, 72.4 nM) was “did not induce major changes”. For the same molecule, the senescent cell viability ([1]; 48 h) was “moderate degree of cell death”, the “senolytic activity (selective decrease of viability of senescent cells)” value ([1]; 72 h) was “displayed senolytic activity” and the “effect on proliferating (non-irradiated) cells” value [4] was “significant increase”.

In the case of `CCCCCCC[C@H](O)CC(=O)CCc1ccc(O)c(OC)c1` [8-gingerol], the “senolytic activity (selective decrease of viability of senescent cells)” value ([1]; 72 h) is reported as “only 6-shogaol and gingerenone A displayed senolytic activity”.

With `CCCCCCC/C=C/C(=O)CCc1ccc(O)c(OC)c1` [8-shogaol] the “senolytic activity (selective decrease of viability of senescent cells)” value ([1]; 72 h) was “only 6-shogaol and gingerenone A displayed senolytic activity”.

In the case of `CCCCCCCCC[C@H](O)CC(=O)CCc1ccc(O)c(OC)c1` [10-gingerol], the “senolytic activity (selective decrease of viability of senescent cells)” value ([1]; 72 h) is reported as “only 6-shogaol and gingerenone A displayed senolytic activity”.

In the case of `COc1cc(CC/C=C/C(=O)CCc2ccc(O)c(OC)c2)ccc1O` [gingerenone A, Gingerenone A], the p53 levels ([2]; proliferating and senescent cells) is reported as “did not increase”, the “expression of anti-apoptotic protein Bcl-XL” value [2] is reported as “reduced” and the “levels of pro-apoptotic protein cleaved caspase-3” value [2] is reported as “increase”. The “level of anti-inflammatory cytokine IL-13” value ([3]; 24 h, FIG. 13A) was “increased”, the “level of pro-inflammatory cytokine IL-8” value ([3]; 24 h, FIG. 13A) was “increased” and the “level of IL-10” value ([3]; 24 h, V-plex, FIG. 13A) was “unchanged”. The “level of IL-10, listed with IL-8 as pro-inflammatory cytokine” value ([3]; 24 h, V-plex, FIG. 13A) was “increased”, the “secreted level of interferon γ-induced protein 10 (IP-10)” value ([3]; 24 h, V-plex, FIG. 13B) was “reduced” and the “level of anti-inflammatory cytokine IL-10” value ([3]; 24 h, multiplex ELISA (Bio-plex), FIG. 12A) was “increase”. The “secreted level of CCL2 (MCP-1)” value ([3]; 24 h, gingerenone A 20 μM, D+Q) was “reduced”, the “secreted level of IL-6” value ([3]; 24 h, gingerenone A 20 μM, D+Q) was “reduced” and the “secretion of pro-inflammatory SASP cytokine IL-1B” value ([3]; senescent cells) was “increase”. The “senescent cell viability relative to proliferating cells” value ([1]; 20 μM, 48 h) was “significant decrease; also recorded: significantly decreased”, the “selectivity for senescent over proliferating cells” value ([1]; 48 h, 20 μM, compared to D+Q) was “higher selectivity compared to D+Q” and the senescent cell viability ([1]; 48 h) was “significantly decreased”. The “senolytic activity (selective decrease of viability of senescent cells)” value ([1]; 72 h) was “displayed senolytic activity”, the IC50 ([1]; Homo sapiens, WI-38, light or radiation study, dose response 2.5-100 μM, 72 h, 10 days post-irradiation) was 19.6 ± 2.1 µM and the “effect on proliferating (non-irradiated) cells” value [4] was “did not show any significant effect”.

In the case of `COc1cc(CCC(C)=O)ccc1O` [zingerone], the “senolytic activity (selective decrease of viability of senescent cells)” value ([1]; 72 h) is reported as “only 6-shogaol and gingerenone A displayed senolytic activity”.
